In patent publication US20250092065A1, “2-(INDAZOL-5-YL)-6-(PIPERIDIN-4-YL)-1,7-NAPHTHYRIDINE DERIVATIVES AND RELATED COMPOUNDS AS MODULATORS FOR SPLICING NUCLEIC ACIDS AND FOR THE TREATMENT OF PROLIFERATIVE DISEASES” (REMIX THERAPEUTICS INC., priority 2022, published 2025) one finds IC50 data, which are given here for 37 molecules.

Molecules are shown by their SMILES.

The subject of one test is Target C. Kind of test: RT-qPCR canonical junction panel assay, Target C mRNA. The following applies: Table 4, read-out: Target C IC50 (decrease in CJ mRNA levels). It counts as cell-based. Put shortly:
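A673 or K562 cells treated with compound; CJ mRNA quantified by junction-spanning RT-qPCR probe after cDNA synthesis, normalised to GAPDH, GUSB or PPIA and DMSO (2^−ΔΔCt), scaled to set ΔCt assay window; IC50 from 4-parameter fit of CJ decrease.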
(In qPCR the cycle at which signal appears reflects the starting amount.)

A further test concerns SMN2 mRNA. Kind of test: RT-qPCR splicing assay, SMN2 mRNA. The note with it: Homo sapiens, canonical junction qPCR panel, Table 4; read-out: SMN2 IC50 (decrease in CJ mRNA levels). It counts as cell-based, human. In a few lines:
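A673 or K562 cells treated 24 h at 37 °C with 11-point 3-fold dilutions (top final 10 uM, DMSO ≤0.25%). Lysates analysed by one-step RT-qPCR for canonical (CJ) and alternative-exon (AJ) junctions, normalized to GAPDH, GUSB or PPIA. ΔΔCt vs DMSO, RQ = 2^(−ΔΔCt), expressed as percentage response.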

Regarding `C[C@H]1C[C@H](c2ccc3nc(-c4cc5cn(C)nc5c(F)c4O)ccc3n2)CCN1` (single isomer, unassigned) [Compound 356], the IC50 (in general, the concentration that inhibits the measured activity by half) with Target C is 100 to 1000 nM; in the test with SMN2 mRNA, less than 100 nM.
`Cc1c(O)c(-c2ccc3nc(N4CC[C@H](N[C@H]5C[C@H](F)C5)C4)ccc3n2)cc2cn(C)nc12` (single isomer, unassigned) [Compound 358]: the results for the IC50 with Target C and in the test with SMN2 mRNA were 100 to 1000 nM and less than 100 nM, respectively.
Regarding `Cn1cc2cc(-c3ccc4nc(N5CC[C@@H](N)C5)ccc4n3)c(O)c(F)c2n1` (single isomer, unassigned) [Compound 362], the concentration for half-maximal inhibition (IC50) is 100 to 1000 nM in the test on Target C and less than 100 nM with SMN2 mRNA.
With `CN[C@@H]1CCN(c2ccc3nc(-c4cc5cn(C)nc5c(C)c4O)ncc3n2)C1` (single isomer, unassigned) [Compound 368], the IC50 with Target C was 1000 to 10000 nM; with SMN2 mRNA it was less than 100 nM.
The like results for `CN[C@H]1CCN(c2ccc3nc(-c4cc5cn(C)nc5c(C)c4O)ncc3n2)C1` (single isomer, unassigned) [Compound 369] were, in that order, 1000 to 10000 nM and less than 100 nM.
As for `Cc1nc2c(F)c(O)c(-c3ccc4nc(N5CC[C@H](NC6(CF)CC6)C5)ccc4n3)cc2o1` (single isomer, unassigned) [Compound 373], the IC50 in the test with Target C and in the test with SMN2 mRNA was less than 100 nM each time.
Take `Cc1nc2c(C)c(O)c(-c3ccc4nc(N5CC[C@H](NC6(CF)CC6)C5)ccc4n3)cc2o1` (single isomer, unassigned) [Compound 378]: the half-inhibitory concentration (IC50) in the test with Target C and in the test on SMN2 mRNA was less than 100 nM throughout.
Consider `Cc1nc2c(C)c(O)c(-c3ccc4nc(N5CC[C@@H](NC6(CF)CC6)C5)ccc4n3)cc2o1` (single isomer, unassigned) [Compound 379], for which the values for the IC50 in the test on Target C and in the test on SMN2 mRNA were 100 to 1000 nM and less than 100 nM, respectively.
For `Cn1cc2cc(-c3ncc4nc(N5CC[C@@H](N)C5)ccc4n3)c(O)c(F)c2n1` (single isomer, unassigned) [Compound 380], the 50% inhibitory concentration (IC50) was 1000 to 10000 nM in the test with Target C and less than 100 nM in the test on SMN2 mRNA.
On to `C[C@H]1C[C@@H](c2ccc3nc(-c4cc5cn(C)nc5c(F)c4O)ccc3n2)CCN1` (single isomer, unassigned) [Compound 383], for which the IC50 with Target C is 100 to 1000 nM; in the test with SMN2 mRNA it was less than 100 nM.
On to `Cn1cc2cc(-c3ccc4nc(C5CCNC[C@H]5O)ccc4n3)c(O)cc2n1` (single isomer, unassigned) [Compound 386], for which the half-maximal inhibitory concentration (IC50) in the test with Target C is more than 10000 nM; in the test on SMN2 mRNA, less than 100 nM.
Regarding `Cn1cc2cc(-c3ccc4nc(N5CC[C@@H](NC(C)(C)C)C5)ccc4n3)c(O)c(F)c2n1` (single isomer, unassigned) [Compound 391], the IC50 in the test on Target C and in the test on SMN2 mRNA was less than 100 nM throughout.
For `Cn1cc2cc(-c3ccc4nc(N5CC[C@H](NC(C)(C)C)C5)ccc4n3)c(O)c(F)c2n1` (single isomer, unassigned) [Compound 392], the 50% inhibitory concentration (IC50) in the test on Target C and in the test with SMN2 mRNA was less than 100 nM each time.
For the molecule `Cc1c(O)c(-c2ncc3nc([C@@H]4CCNC4)ccc3n2)cc2cn(C)nc12` (single isomer, unassigned) [Compound 398], the half-maximal inhibitory concentration (IC50) with Target C is more than 10000 nM; in the test on SMN2 mRNA, less than 100 nM.
Consider `Cc1nc2c(C)c(O)c(-c3ccc4nc(N5CC[C@@H](NC6CC6)C5)ncc4n3)cc2o1` (single isomer, unassigned) [Compound 432], for which the IC50 in the test on Target C and in the test on SMN2 mRNA was less than 100 nM each time.
For `Cc1nc2cc(O)c(-c3ccc4nc(N5CC[C@@H](NC6CC6)C5)ncc4n3)cc2o1` (single isomer, unassigned) [Compound 434], the figures for the IC50 in the test on Target C and with SMN2 mRNA were 100 to 1000 nM and less than 100 nM, respectively.
The like results for `Cc1nc2c(C)c(O)c(-c3ccc4cc(N5CC[C@@H](NC(C)(C)C)C5)ncc4n3)cc2o1` (single isomer, unassigned) [Compound 444] were, in that order, 100 to 1000 nM and less than 100 nM.
Consider `Cc1nc2c(C)c(O)c(-c3ccc4cc(N5CC[C@H](NC(C)(C)C)C5)ncc4n3)cc2o1` (single isomer, unassigned) [Compound 445], for which the 50% inhibitory concentration (IC50) was 1000 to 10000 nM in the test on Target C and 100 to 1000 nM with SMN2 mRNA.
Consider `Cc1nc2cc(O)c(-c3ccc4nc(N5CC[C@@H](NC6(CF)CC6)C5)ccc4n3)cc2o1` (single isomer, unassigned) [Compound 488], for which the 50% inhibitory concentration (IC50) in the test with Target C and in the test with SMN2 mRNA was less than 100 nM throughout.
`Cc1nc2cc(O)c(-c3ccc4nc(N5CC[C@H](NC6(CF)CC6)C5)ccc4n3)cc2o1` (single isomer, unassigned) [Compound 489]: the figures for the IC50 with Target C and with SMN2 mRNA were 100 to 1000 nM and less than 100 nM, respectively.
On to `Cc1nc2c(F)c(O)c(-c3ccc4nc(N5CC[C@@H](NC6(CF)CC6)C5)ccc4n3)cc2o1` (single isomer, unassigned) [Compound 491], for which the concentration for half-maximal inhibition (IC50) in the test with Target C and in the test with SMN2 mRNA was less than 100 nM each time.
With `Cn1cc2cc(-c3ccc4nc(N5CCC(NC6(CF)CC6)C5)ccc4n3)c(O)c(F)c2n1` (stereo in doubt) [Compound 353, 7-fluoro-5-{6-[(3R)-3-{[1-(fluoromethyl)cyclopropyl]amino}pyrrolidin-1-yl]-1,5-naphthyridin-2-yl}-2-methylindazol-6-ol], the IC50 in the test with Target C and in the test on SMN2 mRNA was less than 100 nM throughout.
`Cn1cc2cc(-c3ccc4nc(N5CCC(NC6(CF)CC6)C5)ccc4n3)c(O)c(F)c2n1` (stereo in doubt) [Compound 357, 7-fluoro-5-{6-[(3S)-3-{[1-(fluoromethyl)cyclopropyl]amino}pyrrolidin-1-yl]-1,5-naphthyridin-2-yl}-2-methylindazol-6-ol]: the IC50 in the test with Target C and in the test with SMN2 mRNA was less than 100 nM throughout.
Take `Cn1cc2cc(-c3ccc4nc(N5CCC(N)C5)ccc4n3)c(O)c(F)c2n1` (stereo in doubt) [Compound 363, 5-{6-[(3R)-3-aminopyrrolidin-1-yl]-1,5-naphthyridin-2-yl}-7-fluoro-2-methylindazol-6-ol]: the IC50 with Target C and in the test with SMN2 mRNA was less than 100 nM throughout.
Take `Cc1nc2c(F)c(O)c(-c3ccc4nc(N5CC[C@@H](N[C@H]6C[C@@H](F)C6)C5)ccc4n3)cc2o1` (stereo in doubt) [Compound 375]: the 50% inhibitory concentration (IC50) in the test on Target C and with SMN2 mRNA was less than 100 nM in each case.
Consider `Cc1nc2c(C)c(O)c(-c3ccc4nc(N5CC[C@@H](N[C@H]6C[C@@H](F)C6)C5)ccc4n3)cc2o1` (stereo in doubt) [Compound 376], for which the values for the IC50 in the test on Target C and in the test on SMN2 mRNA were 100 to 1000 nM and less than 100 nM, respectively.
For the molecule `Cc1nc2c(C)c(O)c(-c3ccc4nc(N5CC[C@H](N[C@H]6C[C@@H](F)C6)C5)ccc4n3)cc2o1` (stereo in doubt) [Compound 377], the IC50 with Target C and with SMN2 mRNA was less than 100 nM in each case.
Turning to `Cc1nc2cc(O)c(-c3ccc4nc(N5CC[C@@H](N[C@H]6C[C@@H](F)C6)C5)ccc4n3)cc2o1` (stereo in doubt) [Compound 395], the IC50 is 1000 to 10000 nM with Target C and less than 100 nM in the test with SMN2 mRNA.
In the case of `Cc1nc2cc(O)c(-c3ccc4nc(N5CC[C@H](N[C@H]6C[C@@H](F)C6)C5)ccc4n3)cc2o1` (stereo in doubt) [Compound 396], the figures for the IC50 with Target C and in the test on SMN2 mRNA were 100 to 1000 nM and less than 100 nM, respectively.
Turning to `Cn1cc2cc(-c3ccc4nc(N5CC[C@@H](NC6(CF)CC6)C5)ccc4n3)c(O)cc2n1` [Compound 354, 5-{6-[(3R)-3-{[1-(fluoromethyl)cyclopropyl]amino}pyrrolidin-1-yl]-1,5-naphthyridin-2-yl}-2-methylindazol-6-ol], the half-maximal inhibitory concentration (IC50) in the test on Target C and with SMN2 mRNA was less than 100 nM throughout.
Turning to `Cn1cc2cc(-c3ccc4nc(N5CC[C@H](NC6(CF)CC6)C5)ccc4n3)c(O)cc2n1` [Compound 355, 5-{6-[(3S)-3-{[1-(fluoromethyl)cyclopropyl]amino}pyrrolidin-1-yl]-1,5-naphthyridin-2-yl}-2-methylindazol-6-ol], the IC50 in the test with Target C is 100 to 1000 nM; in the test with SMN2 mRNA, less than 100 nM.
Turning to `Cc1c(O)c(-c2ccc3nc(N4CCC(NC5(CF)CC5)C4)ccc3n2)cc2cn(C)nc12` (centres unmarked) [Compound 360, 5-[6-(3-{[1-(fluoromethyl)cyclopropyl]amino}pyrrolidin-1-yl)-1,5-naphthyridin-2-yl]-2,7-dimethylindazol-6-ol], the IC50 with Target C and in the test with SMN2 mRNA was less than 100 nM each time.
Turning to `Cc1c(O)c(-c2cc(C(C)O)c3nc(N4CCNCC4)ccc3n2)cc2cn(C)nc12` (centres unmarked) [Compound 364, 5-[4-(1-hydroxyethyl)-6-(piperazin-1-yl)-1,5-naphthyridin-2-yl]-2,7-dimethylindazol-6-ol], the IC50 in the test with Target C is more than 10000 nM; in the test with SMN2 mRNA, 100 to 1000 nM.
With `Cc1c(O)c(-c2ncc3nc(C4CCNCC4)ccc3n2)cc2cn(C)nc12` [Compound 370, 2,7-dimethyl-5-[6-(piperidin-4-yl)pyrido[3,2-d]pyrimidin-2-yl]indazol-6-ol], the IC50 was 1000 to 10000 nM in the test on Target C and less than 100 nM in the test with SMN2 mRNA.
For the molecule `Cc1nc2c(F)c(O)c(-c3ccc4nc(N5CC[C@H](N[C@H]6C[C@@H](F)C6)C5)ccc4n3)cc2o1` [Compound 374, 4-fluoro-2-methyl-6-[6-(3-{[(1r,3r)-3-fluorocyclobutyl]amino}pyrrolidin-1-yl)-1,5-naphthyridin-2-yl]-1,3-benzoxazol-5-ol], the IC50 with Target C and with SMN2 mRNA was less than 100 nM in each case.
With `CNC1CCN(c2ccc3nc(-c4cc(C#N)c5nc(C)cn5c4)ncc3n2)C1` (centres unmarked) [Compound 382, 2-methyl-6-{6-[3-(methylamino)pyrrolidin-1-yl]pyrido[3,2-d]pyrimidin-2-yl}imidazo[1,2-a]pyridine-8-carbonitrile], the figures for the IC50 in the test with Target C and in the test on SMN2 mRNA were 1000 to 10000 nM and less than 100 nM, respectively.
For `Cn1cc2cc(-c3ccc4nc(N5CC[C@H](NC6CC(F)(F)C6)C5)ccc4n3)c(O)cc2n1` [Compound 384], the IC50 with Target C was more than 10000 nM; with SMN2 mRNA, less than 100 nM.
